# System: cells of rat pituitary glands
# Test: in vitro growth hormone release assay in rat pituitary cell cultures (ir GH measured by radioimmunoassay)
# Assay type: cell-based
# Settings: for intrinsic biological activity / potency: in equimolar ratios, side-by-side comparison with synthetic hGRF(1-44)-NH2, incubation 3 to 4 hours, GH release; for intrinsic activity / specific activity: multiple doses factorial design experiments; for intrinsic activity: compared with hGRF(1-44)-NH2; for specific activity: relative to hGRF(1-44)-NH2
# Protocol: To determine the effectiveness of the peptide to promote the release of growth hormone, in vitro assays are carried out using synthetic hGRF(1-44)-NH2 in side-by-side comparison with pGRF(1-44)-NH2 and of a GRF Reference Standard having a known effectiveness to promote the release of growth hormone from pituitary cells. The GRF Reference standard is described and defined in Brazeau, et al., Endocrinology, Vol. 110 A538 (1982) and is an amount of a preparation of rat hypothalamic origin that produces a half- maximal response in terms of GH release in a pituitary cell monolayer bioassay. Cultures are used which include cells of rat pituitary glands removed some four to five days previously. Both cultures of a defined standard medium and cultures which are considered optimal for the secretion of growth hormone are used for the comparative testing, in the general manner described in Brazeau, et al. Regulatory Peptides, 1, 255, 1981. Incubation with the substance to be tested is carried out for 3 to 4 hours, and aliquots of the culture medium are removed and processed to measure their contents in inmunoreactive GH(ir GH) by a well- characterized radioimmunoassay.
# To determine the effectiveness of the peptide to promote the release of growth hormone, in vito assays are carried out using synthetic hGRF(1―44)-NH2 in side-by-side comparison with equimolar concentrations of bGRF(1―44)-NH2, as set forth hereinbefore in Example II.
# To determine the effectiveness of the peptide to promote the release of growth hormone, in vitro assays are carried out using synthetic hGRF(1―44)-NH2 in side-by-side comparison with equimolar concentrations of the synthetic oGRF(1-44)-NH2 of Example V as set forth hereinbefore in Example II.
smiles,measurement,value
CC[C@H](C)[C@H](NC(=O)[C@H](C)NC(=O)[C@H](CC(=O)O)NC(=O)[C@H](C)NC(=O)[C@@H](N)Cc1ccc(O)cc1)C(=O)N[C@@H](Cc1ccccc1)C(=O)N[C@H](C(=O)N[C@@H](CC(N)=O)C(=O)N[C@@H](CO)C(=O)N[C@@H](Cc1ccc(O)cc1)C(=O)N[C@@H](CCCNC(=N)N)C(=O)N[C@@H](CCCCN)C(=O)N[C@H](C(=O)N[C@@H](CC(C)C)C(=O)NCC(=O)N[C@@H](CCC(N)=O)C(=O)N[C@@H](CC(C)C)C(=O)N[C@@H](CO)C(=O)N[C@@H](C)C(=O)N[C@@H](CCCNC(=N)N)C(=O)N[C@@H](CCCCN)C(=O)N[C@@H](CC(C)C)C(=O)N[C@@H](CC(C)C)C(=O)N[C@@H](CCC(N)=O)C(=O)N[C@@H](CC(=O)O)C(=O)N[C@H](C(=O)N[C@@H](CCSC)C(=O)N[C@@H](CC(N)=O)C(=O)N[C@@H](CCCNC(=N)N)C(=O)N[C@@H](CCC(N)=O)C(=O)N[C@@H](CCC(N)=O)C(=O)NCC(=O)N[C@@H](CCC(=O)O)C(=O)N[C@@H](CCCNC(=N)N)C(=O)N[C@@H](CC(N)=O)C(=O)N[C@@H](CCC(N)=O)C(=O)N[C@@H](CCC(=O)O)C(=O)N[C@@H](CCC(N)=O)C(=O)NCC(=O)N[C@@H](C)C(=O)N[C@@H](CCCCN)C(=O)N[C@H](C(=O)N[C@@H](CCCNC(=N)N)C(=O)N[C@@H](CC(C)C)C(N)=O)C(C)C)[C@@H](C)CC)C(C)C)[C@@H](C)O [bGRF(1-44)-NH2],intrinsic biological activity,full intrinsic biological activity
same,potency,close to the same potency
same,intrinsic activity,same intrinsic activity
same,specific activity,about 70 % of hGRF(1-44)-NH2
CC[C@H](C)[C@H](NC(=O)[C@H](C)NC(=O)[C@H](CC(=O)O)NC(=O)[C@H](C)NC(=O)[C@@H](N)Cc1ccc(O)cc1)C(=O)N[C@@H](Cc1ccccc1)C(=O)N[C@H](C(=O)N[C@@H](CC(N)=O)C(=O)N[C@@H](CO)C(=O)N[C@@H](Cc1ccc(O)cc1)C(=O)N[C@@H](CCCNC(=N)N)C(=O)N[C@@H](CCCCN)C(=O)N[C@H](C(=O)N[C@@H](CC(C)C)C(=O)NCC(=O)N[C@@H](CCC(N)=O)C(=O)N[C@@H](CC(C)C)C(=O)N[C@@H](CO)C(=O)N[C@@H](C)C(=O)N[C@@H](CCCNC(=N)N)C(=O)N[C@@H](CCCCN)C(=O)N[C@@H](CC(C)C)C(=O)N[C@@H](CC(C)C)C(=O)N[C@@H](CCC(N)=O)C(=O)N[C@@H](CC(=O)O)C(=O)N[C@H](C(=O)N[C@@H](CCSC)C(=O)N[C@@H](CO)C(=O)N[C@@H](CCCNC(=N)N)C(=O)N[C@@H](CCC(N)=O)C(=O)N[C@@H](CCC(N)=O)C(=O)NCC(=O)N[C@@H](CCC(=O)O)C(=O)N[C@@H](CCCNC(=N)N)C(=O)N[C@@H](CC(N)=O)C(=O)N[C@@H](CCC(N)=O)C(=O)N[C@@H](CCC(=O)O)C(=O)N[C@@H](CCC(N)=O)C(=O)NCC(=O)N[C@@H](C)C(=O)N[C@@H](CCCNC(=N)N)C(=O)N[C@H](C(=O)N[C@@H](CCCNC(=N)N)C(=O)N[C@@H](CC(C)C)C(N)=O)C(C)C)[C@@H](C)CC)C(C)C)[C@@H](C)O [pGRF(1-44)-NH2],intrinsic biological activity,full intrinsic biological activity
same,potency,close to the same potency
"CC[C@H](C)[C@H](NC(=O)[C@H](C)NC(=O)[C@H](CC(=O)O)NC(=O)[C@H](C)NC(=O)[C@@H](N)Cc1ccc(O)cc1)C(=O)N[C@@H](Cc1ccccc1)C(=O)N[C@H](C(=O)N[C@@H](CC(N)=O)C(=O)N[C@@H](CO)C(=O)N[C@@H](Cc1ccc(O)cc1)C(=O)N[C@@H](CCCNC(=N)N)C(=O)N[C@@H](CCCCN)C(=O)N[C@H](C(=O)N[C@@H](CC(C)C)C(=O)NCC(=O)N[C@@H](CCC(N)=O)C(=O)N[C@@H](CC(C)C)C(=O)N[C@@H](CO)C(=O)N[C@@H](C)C(=O)N[C@@H](CCCNC(=N)N)C(=O)N[C@@H](CCCCN)C(=O)N[C@@H](CC(C)C)C(=O)N[C@@H](CC(C)C)C(=O)N[C@@H](CCC(N)=O)C(=O)N[C@@H](CC(=O)O)C(=O)N[C@H](C(=O)N[C@@H](CCSC)C(=O)N[C@@H](CC(N)=O)C(=O)N[C@@H](CCCNC(=N)N)C(=O)N[C@@H](CCC(N)=O)C(=O)N[C@@H](CCC(N)=O)C(=O)NCC(=O)N[C@@H](CCC(=O)O)C(=O)N[C@@H](CCCNC(=N)N)C(=O)N[C@@H](CC(N)=O)C(=O)N[C@@H](CCC(N)=O)C(=O)N[C@@H](CCC(=O)O)C(=O)N[C@@H](CCC(N)=O)C(=O)NCC(=O)N[C@@H](C)C(=O)N[C@@H](CCCCN)C(=O)N[C@H](C(=O)N[C@@H](CCCNC(=N)N)C(=O)N[C@@H](CC(C)C)C(N)=O)C(C)C)[C@@H](C)CC)[C@@H](C)CC)[C@@H](C)O [oGRF(1-44), H-Tyr-Ala-Asp-Ala-lle-Phe-Thr-Asn-Ser-Tyr-Arg-Lys-lle-Leu-Gly-Gln-Leu-Ser-Ala-Arg-Lys-Leu-Leu-Gln-Asp- lle-Met-Asn-Arg-Gln-Gln-Gly-Glu-Arg-Asn-Gln-Glu-Gln-Gly-Ala-Lys-Val-Arg-Leu-NH2]",intrinsic biological activity,full intrinsic biological activity
same,potency,close to the same potency
same,intrinsic activity,about the same intrinsic activity
same,specific activity,about 70 % of hGRF(1-44)-NH2

# Reference: EP0137689B1, “GRF analogs” (THE SALK INSTITUTE FOR BIOLOGICAL STUDIES, priority 1983, dated 1986)
